The source of these data is ChEMBL document CHEMBL4265868, “N-alkanol-N-cyclohexanol amine aryl esters: Multidrug resistance (MDR) reversing agents with high potency and efficacy” (Eur J Med Chem, 2017).

Series [1] in a line: Half life in human plasma by LC-MS/MS method. It counts as ADME, cell-free.
Series [2] is described as follows: Stability in PBS buffer assessed as drug degradation incubated for 30 to 120 mins by LC-MS/MS method. It is filed as physicochemical. The conditions noted are these: read-out: Drug degradation.
The species entered for series [3] is Homo sapiens.
Description: Inhibition of P-gp in human K562/DOX cells assessed as drug level causing 50% increase in nuclear pirarubicin concentration incubated for 30 mins by spectroflurometry
Series [4] in a line: Stability in presence of bovine serum and human K562/DOX cells assessed as drug degradation incubated for 30 to 120 mins by LC-MS/MS method. It counts as ADME. The conditions noted are these: K562/DOX cells with bovine serum, read-out: Drug degradation.
The species entered for series [5] is Homo sapiens. The series can be described thus: Inhibition of P-gp in human K562/DOX cells assessed as potentiation of doxorubicin-induced cytotoxicity by measuring reduction in doxorubicin IC50 at 0.1 uM incubated for 72 hrs by MTT assay relative to control. It counts as cell-based. In general terms: Formazan colour is commonly taken as a measure of viable cells.

The test system of series [6] is K562. The series can be described thus: Inhibition of P-gp in human K562/DOX cells assessed as increase in rhodamine-123 […] in human K562 cells at 1 uM incubated for 10 mins hrs by flow cytometry relative to untreated control. It is filed as cell-based.
For series [7], the species on record is Homo sapiens. Put plainly: Inhibition of P-gp in human K562/DOX cells assessed as potentiation of doxorubicin-induced cytotoxicity by measuring reduction in doxorubicin IC50 at 3 uM incubated for 72 hrs by MTT assay relative to control. It counts as cell-based.
A short description of series [8]: Toxicity in human K562/Dox cells assessed as reduction in cell viability at 0.1 to 3 uM incubated for 72 hrs by MTT assay. It counts as cell-based.
For series [9], the species on record is Homo sapiens. The series can be described thus: Inhibition of P-gp in human K562/DOX cells assessed as potentiation of doxorubicin-induced cytotoxicity by measuring reduction in doxorubicin IC50 at 1 uM incubated for 72 hrs by MTT assay relative to control. It counts as cell-based.
Series [10] relates to K562. Put plainly: Effect on rhodamine-123 efflux in human K562 cells at 1 uM incubated for 10 mins hrs by flow cytometry. It is filed as ADME, cell-based. The conditions noted are these: k562, 10 min. (In general: In flow cytometry, cells or beads pass a laser one at a time.)
Series [11] relates to K562. The series can be described thus: Potentiation of doxorubicin-induced cytotoxicity in human K562 cells assessed as reduction in cell viability at 0.1 to 3 uM incubated for 72 hrs by MTT assay. It is filed as cell-based. The conditions noted are these: k562, 72 h.
For series [12], the system named is K562. The series can be described thus: Toxicity in human K562 cells assessed as reduction in cell viability at 0.1 to 3 uM incubated for 72 hrs by MTT assay. It counts as cell-based. Conditions: k562, 72 h.
The nature of series [13]: Stability in human plasma assessed as parent compound remaining incubated for 120 mins by LC-MS/MS method. It counts as ADME, cell-free. Conditions: read-out: Stability.

Molecules are shown by their SMILES. Calls of active or inactive are those of the source. Some results are limits rather than exact numbers.

For the compound `COc1cc(/C=C/C(=O)OCCCCCN(C)[C@H]2CC[C@H](OC(=O)c3cc(OC)c(OC)c(OC)c3)CC2)cc(OC)c1OC`, in [1], the half-life (as a rule, the time needed for the level to fall by half in the phase considered) is not below 4 h. For the same compound, the degraded in series [2] is less than 5%. The I0.5 in the series listed under Homo sapiens [3] came to 0.1 µM. Also, the metabolised in series [4] is less than 5%.

As to `COc1cc(/C=C/C(=O)O[C@H]2CC[C@H](N(C)CCCCOC(=O)c3cc(OC)c(OC)c(OC)c3)CC2)cc(OC)c1OC`, the half-life in series [1] is not above 2 h. Also, the Ratio IC50 came to 3.3 in the series listed under Homo sapiens [5], 50 in the series filed under Homo sapiens [7] and 12.9 in the series filed under Homo sapiens [9]. Besides, in the series on K562 [6], the fold change (FC) turned out to be 60. The degraded in series [2] was less than 5%. Besides, the Activity result (in series [8]; in the series with K562 [10]; in the series on K562 [11]; in the series on K562 [12]) was “Non-Toxic” in each case. In the series listed under Homo sapiens [3], this compound returned an I0.5 of 0.06 µM. In series [4], the metabolised is less than 5%.

In turn, `COc1cc(/C=C/C(=O)OCCCN(C)[C@H]2CC[C@@H](OC(=O)c3cc(OC)c(OC)c(OC)c3)CC2)cc(OC)c1OC` yielded a half-life in [1] of 2 to 4 h. In addition, the remaining at 2 h in [13] is 75%. For the same compound, the degraded in series [2] was less than 5%. This compound gave an I0.5 in the series listed under Homo sapiens [3] of 0.25 µM. The metabolised in series [4] was less than 5%.

`COc1cc(/C=C/C(=O)OCCCCCN(C)[C@H]2CC[C@@H](OC(=O)c3cc(OC)c(OC)c(OC)c3)CC2)cc(OC)c1OC` showed a half-life in series [1] not below 4 h. Moreover, the degraded in series [2] is less than 5%. Besides, the I0.5 in the series filed under Homo sapiens [3] is 0.51 µM. Besides, the metabolised in series [4] is less than 5%.

Turning to `CCOC(=O)C(C)c1cccc(C(=O)c2ccccc2)c1` (stereo not given), in series [1], the half-life was less than 2 h.

In the case of `COc1cc(/C=C/C(=O)OCCCN(C)[C@H]2CC[C@H](OC(=O)c3cc(OC)c(OC)c(OC)c3)CC2)cc(OC)c1OC`, the half-life in series [1] was not above 2 h. The degraded in [2] is less than 5%. The compound also returned an I0.5 in the series filed under Homo sapiens [3] of 0.08 µM. In addition, in series [4], the metabolised was less than 5%.

For `COc1cc(/C=C/C(=O)O[C@H]2CC[C@@H](N(C)CCCOC(=O)c3cc(OC)c(OC)c(OC)c3)CC2)cc(OC)c1OC`, in series [1], the half-life is not below 4 h. Also, the degraded in series [2] is less than 5%. In addition, the I0.5 in the series listed under Homo sapiens [3] was found to be 0.47 µM. In series [4], the metabolised was less than 5%.

For `COc1cc(/C=C/C(=O)OCCCCN(C)[C@H]2CC[C@H](OC(=O)c3cc(OC)c(OC)c(OC)c3)CC2)cc(OC)c1OC`, the half-life in series [1] lay within 2 to 4 h. For the same compound, the remaining at 2 h in series [13] turned out to be 50%. In addition, in series [2], the degraded is less than 5%. Moreover, the I0.5 in the series filed under Homo sapiens [3] was found to be 0.08 µM. For the same compound, the metabolised in [4] was less than 5%.

In series [1], `COc1cc(/C=C/C(=O)O[C@H]2CC[C@@H](N(C)CCCCCOC(=O)c3cc(OC)c(OC)c(OC)c3)CC2)cc(OC)c1OC` showed a half-life not below 4 h. Further, the Ratio IC50 was found to be 1.6 in the series listed under Homo sapiens [5], 14.7 in the series listed under Homo sapiens [7] and 5.5 in the series filed under Homo sapiens [9]. For the same compound, the fold change (FC) with K562 [6] is 10 to 80. In addition, the degraded in series [2] is less than 5%. Moreover, the Activity result (in series [8]; with K562 [10]; in the series on K562 [11]; in the series with K562 [12]) was “Non-Toxic” each time. The same compound came in with an I0.5 in the series listed under Homo sapiens [3] of 0.09 µM. Besides, the metabolised in series [4] was less than 5%.

The compound `COc1cc(/C=C/C(=O)O[C@H]2CC[C@H](N(C)CCCOC(=O)c3cc(OC)c(OC)c(OC)c3)CC2)cc(OC)c1OC` gave a half-life in [1] not above 1 h. Also, the degraded in series [2] is less than 5%. The I0.5 in the series listed under Homo sapiens [3] came out at 0.07 µM. Also, in series [4], the metabolised is less than 5%.

`COc1cc(/C=C/C(=O)OCCCCN(C)[C@H]2CC[C@@H](OC(=O)c3cc(OC)c(OC)c(OC)c3)CC2)cc(OC)c1OC` registered a half-life in series [1] not below 4 h. Also, the degraded in series [2] is less than 5%. Moreover, the I0.5 in the series filed under Homo sapiens [3] turned out to be 0.35 µM. Further, the metabolised in [4] was less than 5%.

Turning to `COc1cc2c(cc1OC)CN(CCc1ccc(NC(=O)c3cc(OC)c(OC)cc3NC(=O)c3cnc4ccccc4c3)cc1)CC2`, the inhibition result with K562 [6] is “Active”. In addition, the Ratio IC50 in the series listed under Homo sapiens [9] is 29.7.

As for `COc1cc(/C=C/C(=O)O[C@H]2CC[C@H](N(C)CCCCCOC(=O)c3cc(OC)c(OC)c(OC)c3)CC2)cc(OC)c1OC`, the half-life in series [1] is not below 4 h. Also, the Ratio IC50 stood at 2.3 in the series filed under Homo sapiens [5], 57.9 in the series filed under Homo sapiens [7] and 32.8 in the series listed under Homo sapiens [9]. Moreover, in the series on K562 [6], the fold change (FC) came out at 80. Besides, the degraded in series [2] is less than 5%. For the same compound, the Activity result (in [8]; in the series with K562 [10]; in the series with K562 [11]; in the series on K562 [12]) was “Non-Toxic” in each case. The compound also showed an I0.5 in the series filed under Homo sapiens [3] of 0.13 µM. For the same compound, the metabolised in [4] was less than 5%.

Take `COc1cc(/C=C/C(=O)O[C@H]2CC[C@@H](N(C)CCCCOC(=O)c3cc(OC)c(OC)c(OC)c3)CC2)cc(OC)c1OC`: the half-life in series [1] is not below 4 h. The Ratio IC50 is 2.8 in the series filed under Homo sapiens [5], 34.9 in the series filed under Homo sapiens [7] and 4.6 in the series listed under Homo sapiens [9]. Moreover, in the series with K562 [6], the fold change (FC) lay in the range of 10 to 80. Also, the degraded in [2] was less than 5%. Besides, the Activity result (in [8]; with K562 [10]; in the series with K562 [11]; in the series on K562 [12]) was “Non-Toxic” in each case. Further, the I0.5 in the series filed under Homo sapiens [3] amounted to 0.29 µM. Moreover, in series [4], the metabolised was less than 5%.
